Legend:
[1] = tested on: U87-MG (IDH2-R140Q) subcutaneous xenograft tumor; experiment: Subcutaneous xenograft tumor caused by U87-MG (IDH2-R140Q) mutant cells in vivo: intratumor 2-HG; set-up: species or system BALB/c nude mice; conditions: for Intratumor 2-HG(%) after 10 days of administration: intragastric, mean, relative to U87-MG (IDH2-R140Q) control group; for ability of lowering 2-HG level compared with positive compound AG-221: U87-MG (IDH2-R140Q) subcutaneous xenograft model
Description: 1.2 Animals: BALB/c nude mice, 6-7 weeks old, female, 18-22 g, purchased from Nanjing Jinlaichang Company.
U87-MG (IDH2-R140Q) cells and U87-MG cells (wild type) were expanded, and cells in logarithmic growth phase were used for tumor inoculation in vivo. 16 mice were inoculated subcutaneously into the right lower back of the body at an amount of 2×10^6 cells/mouse (the volume ratio of cell suspension to Matrigel was 1:0.8).
The non-mutation control group was nude mice inoculated with U87-MG cells, and the test compound groups and vehicle control group were nude mice inoculated with U87-MG (IDH2-R140Q) cells.
Each group was intragastrically administered with a corresponding concentration of the compound solution, the administration volume was 100 μL/10 g body weight, and the control group was administered the same volume of blank vehicle.
After 10 days of administration, the mice were sacrificed. The tumors were exfoliated, homogenized, and the 2-HG content in the tumor was examined.
The 2-HG concentration in the homogenate of each animal tumor in each group was determined by LC-MS/MS. The percentage (2-HG %) was calculated; the calculation formula is as follows 2-HG %=(2-HG concentration of administration group tumor−2-HG concentration of U87-MG control group tumor)/(2-HG concentration of U87−MG(IDH2-R140Q) control group tumor−2-HG concentration of U87-MG control group tumor)×100%.

[2] = biological target: T1, U87-MG cell line of overexpressed mutant IDH2 (R140Q) (Homo sapiens, UniProt P48735, R140Q); experiment: Cell activity in vitro: 2-HG in culture supernatant of U87-MG (IDH2-R140Q) cells by LC-MS/MS; assay type: cell-based; conditions: U87-MG (IDH2-R140Q) cells, 72 hours, 2-HG in supernatant; read-out: IC50 (2-HG remaining compared to untreated)
T1 construct: expressed in transfected cells
T1 sequence (P48735 40-452 R140Q): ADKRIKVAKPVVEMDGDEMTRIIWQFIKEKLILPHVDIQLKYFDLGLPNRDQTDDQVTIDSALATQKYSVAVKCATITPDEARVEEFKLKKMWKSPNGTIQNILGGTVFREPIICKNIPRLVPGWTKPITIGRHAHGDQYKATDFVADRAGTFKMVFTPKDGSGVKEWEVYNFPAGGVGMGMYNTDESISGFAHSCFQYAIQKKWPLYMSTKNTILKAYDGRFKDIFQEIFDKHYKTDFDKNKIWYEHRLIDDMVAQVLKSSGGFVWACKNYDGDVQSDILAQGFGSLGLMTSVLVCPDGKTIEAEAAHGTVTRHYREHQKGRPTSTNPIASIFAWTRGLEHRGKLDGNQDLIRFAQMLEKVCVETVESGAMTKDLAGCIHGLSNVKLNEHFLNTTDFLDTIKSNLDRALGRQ
Method: 1.2 Cells: human glioblastoma cell line U87-MG, purchased from the American Type Culture Collection (ATCC);
Cell recovery: U87-MG (IDH2-R140Q) cells and U87-MG cells were put into a 37° C. water bath, then transferred to 15 mL of pre-warmed medium, centrifuged at 1000 rpm for 5 minutes, and the medium was discarded. The cells were resuspended in 15 mL of fresh medium, transferred to a T75 flask and cultured in a 37° C. incubator with 5% CO2. After 24 hours, the medium was changed to fresh medium.
Cell passage: The above-mentioned recovered cells were transferred to a 50 mL sterile centrifuge tube, centrifuged at 1000 rpm for 5 minutes, and the medium was discarded. The cells were resuspended evenly and counted. The cell density was adjusted appropriately in a 15 mL fresh medium, and then added to T75 culture flask. The culture flask was incubated in an incubator with 5% CO2 at 37° C.
After cells grown to a relatively high density in the culture dish, the cells were trypsinized, resuspended in medium (MEM+10% FBS), and counted. After adjusting the cell concentration, the resuspended cells were seeded in a 96-well plate at 5×10^3 cells per well. After inoculation, the cells were cultured for 24 hours until the cells adhered. The medium were sucked out, and the medium containing gradient concentration of compound was added, 100 μL per well. The cells were further cultured for 72 hours. The s 20 μL of upernatant was taken and put into a 2 mL 96-well sample-processing plate. 480 μL of dilution solution was added and shaken for mixing, and then centrifuged at 4500 rpm for 5 minutes. 200 μL of supernatant was transferred for LC-MS/MS injection analysis.
Column: Shim-pack XR-ODS 30L*2.0; mobile phase: acetonitrile-0.2% ammonia, 5 mM ammonium acetate aqueous solution; column temperature: 30° C.; flow rate: 0.4 mL/min; gradient elution conditions are as follows: […]
Atmospheric […] chemical ionization (APCI) was used. Source parameters was set as follows: IonSpray Voltage/IS-4500V; auxiliary gas 1 (Ion Source Gas 1/GS 1, N2), 55Arb; auxiliary gas 2 (Ion Source Gas 2, N2), 55Arb; auxiliary gas heating temperature (Temperature/TEM), 500° C.; curtain gas/CUR, 25Arb; collision gas/CAD, N2, 8 Pa.
Multi-ion reaction monitoring (MRM) in negative ion mode (Negative) was used. […] The internal standard (IS) MRM parameters: parent ion (Q 1 Mass), 178.0 Da; daughter ion (Q3 Mass), 149.0 Da; Decluster Potential (DP), −51V; collision voltage (Collision Energy/CE), −17 eV
By determining the 2-HG content in the cell culture supernatant of each well using LC-MS/MS, the mutant enzyme activity (2-HG remaining compared to untreated %) was calculated. The calculation formula: 2-HG remaining compared to untreated %=(Measured 2-HG level—U87-MG control 2-HG level)/(Untreated 2-HG level—U87-MG control 2-HG level)×100. […] Data were processed by GraphPad Prism v5.0 software and fitted to obtain IC50.

[3] = biological target: T2, IDH2-R140Q mutant enzyme (Homo sapiens, UniProt P48735, R140Q); experiment: Inhibitory activity of compounds on IDH2-R140Q enzyme in vitro (diaphorase/resazurin fluorescence); assay type: biochemical; conditions: IDH2-R140Q, pre-incubated 16 h with enzyme and NADPH, reaction 1 h with α-ketoglutarate; read-out: R140Q IC50
T2 construct: purchased BPS 71100-1
T2 sequence (P48735 40-452 R140Q): T1 sequence (P48735 40-452 R140Q)
Method: Instrument: SpectraMax M3 Multi-Mode Microplate Reader, purchased from Molecular Devices.
In a 96-well plate, 40 μL of reaction buffer containing 2× enzyme (IDH2-WT or IDH2-R140Q) and cofactor (NADP or NADPH) was added to each well of the compound group and the DMSO control group, and 40 μL of reaction buffer containing 2× cofactor (NADP or NADPH) was added to each well of the enzyme-free control group.
20 μL of reaction buffer containing 4× compound to be tested was added to each well of the compound group. The compound was pre-formulated into 200× mother liquor with 100% DMSO; in the final reaction system, the concentration of DMSO was 0.5%. 20 μL of reaction buffer containing DMSO was added to each well of the DMSO control group; in the final reaction system, the concentration of DMSO was 0.5%.
The compound was mixed well with the enzyme and cofactor, and pre-incubated at room temperature for 16 h;
20 μL of reaction buffer containing 4× reaction substrate was added to each well. After mixed uniformly, the mixture was reacted at room temperature for 1 h.
3× termination and detection solution (it was prepared with reaction buffer, the final concentration of Diaphorase was 0.015 mg/mL, and the final concentration of Resazurin was 0.03 mM) was prepared. 40 μL of 3× termination and detection solution was added to each well of the enzyme reaction system. After mixed uniformly, the mixture was incubated at room temperature for 10 min;
Fluorescence values of two wells were obtained and averaged and the activity rate (Activity %) was calculated. The calculation formula: Activity %=(Measured data−Subtract background)/(DMSO Control−Subtract background)×100, wherein “Measured data” is fluorescence value of the compound in the pre-incubated wells, “Subtract background” is the fluorescence value of the enzyme-free control wells, and “DMSO Control” is the fluorescence value in the DMSO pre-incubated wells. Data was processed by GraphPad Prism v5.0 software and fitted to obtain IC50.

[4] = tested on: human acute myeloid leukemia AM7577 cells; experiment: Human acute myeloid leukemia NOD/SCID animal model: survival; assay type: in vivo, NOD/SCID mice; conditions: gavage once a day for 14 days, 14 days after administration
Description: 1.1 Compounds to be tested: the compounds of the present disclosure prepared in the above examples, each of which was formulated into a solution in corresponding concentrations by using a vehicle (2% absolute ethanol:10% Solutol™: 88% physiological saline (v/v/v)).
1.2 Cells: human acute myeloid leukemia AM7577 cells, provided by Sino-American Crown Biotechnology (Beijing) Co., Ltd
1.4 Animals: NOD/SCID mice, 3-4 weeks old, female, purchased from Beijing Huakangkang Biotechnology Co., Ltd
Each mouse was inoculated through the tail vein at an amount of 2×10^6 cells resuspended in 100 uL of PBS.
Orbital blood samples of animals were collected weekly, labeled with human CD45, and the percentage of positive cells was detected. The animals were grouped when the percentage of peripheral blood CD45+ cells reached 5%. The proportion of peripheral blood CD45+ cells reached 5% on the 40th day after inoculation. After grouping, drugs were administered by gastric gavageonce once a day for 14 days.
The mortality rate of the animals after administration and the survival period of the surviving animals were observed.

Row | SMILES | IC50 [2] [nM] | IC50 [3] [nM] | Intratumor 2-HG(%) after 10 days of administration ([1]; 12.5 mg/kg) [%] | Intratumor 2-HG(%) after 10 days of administration ([1]; 6.25 mg/kg) [%] | ability of lowering 2-HG level compared with positive compound AG-221 [1] | Numbers of surviving animals ([4]; 15 mg/kg, 8 animals per group) | Numbers of surviving animals ([4]; 45 mg/kg, AG-221 group 4 animals, Example 22B group 8) | Intratumor 2-HG(%) after 10 days of administration ([1]; 25 mg/kg) [%]
1 | OC1CCCN(c2nc(Nc3ccnc(C(F)(F)F)c3)nc(-c3cccc(C(F)(F)F)n3)n2)C1 (centres unmarked) [Example 3, 4-(3-Hydroxypiperidin-1-yl)-6-(6-(trifluoromethyl)pyridin-2-yl)-N-(2-(trifluoromethyl)pyridin-4-yl)-1,3,5-triazin-2-amine] | 24 | 22 | 22 |  |  |  |  | 
2 | O[C@@]1(C(F)(F)F)CCN(c2nc(Nc3ccnc(C(F)(F)F)c3)nc(-c3cccc(C(F)(F)F)n3)n2)C1 [Example 22B, (S)-4-(3-trifluoromethyl-3-hydroxypyrrolidin-1-yl)-6-(6-(trifluoromethyl)pyridin-2-yl)-N-(2-(trifluoromethyl)pyridin-4-yl)-1,3,5-triazin-2-amine] |  |  |  |  | substantially superior | 7 | 7 | 
3 | OC1(C(F)(F)F)CN(c2nc(Nc3ccnc(C(F)(F)F)c3)nc(-c3cccc(C(F)(F)F)n3)n2)C1 [Example 34] | 17.1 | 14.1 | 24 |  |  |  |  | 
4 | FC1(F)CCCN(c2nc(Nc3ccnc(C(F)(F)F)c3)nc(-c3cccc(C(F)(F)F)n3)n2)C1 [Example 2, 4-(3,3-Difluoropiperidin-1-yl)-6-(6-(trifluoromethyl)pyridin-2-yl)-N-(2-(trifluoromethyl)pyridin-4-yl)-1,3,5-triazin-2-amine] | 27 | 23 | 14 |  |  |  |  | 
5 | N#C[C@H]1CCN(c2nc(Nc3ccnc(C(F)(F)F)c3)nc(-c3cccc(C(F)(F)F)n3)n2)C1 [Example 51, 4-((S)-3-cyanopyrrolidin-1-yl)-6-(6-(trifluoromethyl)pyridin-2-yl)-N-(2-(trifluoromethyl)pyridin-4-yl)-1,3,5-triazin-2-amine] |  | 18 |  | 38 | substantially superior |  |  | 

Further molecules by falling IC50 [3], results first:

Row | IC50 [2] [nM] | IC50 [3] [nM] | SMILES | Intratumor 2-HG(%) after 10 days of administration ([1]; 12.5 mg/kg) [%] | Intratumor 2-HG(%) after 10 days of administration ([1]; 6.25 mg/kg) [%] | ability of lowering 2-HG level compared with positive compound AG-221 [1] | Numbers of surviving animals ([4]; 15 mg/kg, 8 animals per group) | Numbers of surviving animals ([4]; 45 mg/kg, AG-221 group 4 animals, Example 22B group 8) | Intratumor 2-HG(%) after 10 days of administration ([1]; 25 mg/kg) [%]
6 | 15 | 11 | FC1(F)CCN(c2nc(Nc3ccnc(C(F)(F)F)c3)nc(-c3cccc(C(F)(F)F)n3)n2)CC1 [Example 1, 4-(4,4-Difluoropiperidin-1-yl)-6-(6-(trifluoromethyl)pyridin-2-yl)-N-(2-(trifluoromethyl)pyridin-4-yl)-1,3,5-triazin-2-amine] |  |  |  |  |  | 22
7 | 15 | 10.1 | FC(F)(F)c1cc(Nc2nc(-c3cccc(C(F)(F)F)n3)nc(N3CC(F)(F)C(F)(F)C3)n2)ccn1 [Example 55, 4-(3,3,4,4-Tetrafluoropyrrolidin-1-yl)-6-(6-(trifluoromethyl)pyridin-2-yl)-N-(2-(trifluoromethyl)pyridin-4-yl)-1,3,5-triazin-2-amine] |  | 1 | substantially superior |  |  | 
8 | 10.2 | 6.3 | FC(F)(F)c1cc(Nc2nc(OCC(F)(F)C(F)(F)F)nc(-c3cccc(C(F)(F)F)n3)n2)ccn1 [Example 45, 4-(2,2,3,3,3-pentafluoropropoxy)-6-(6-(trifluoromethyl)pyridin-2-yl)-N-(2-(trifluoromethyl)pyridin-4-yl)-1,3,5-triazin-2-amine] |  | 17 | substantially superior |  |  | 

Source: patent publication US10961222B2, “Chemical compound of isocitrate dehydrogenase inhibitor, and application thereof” (NANJING SANHOME PHARMACEUTICAL CO., LTD., priority 2016, dated 2021)
